In PubChem BioAssay AID2060908 (Molecular Pharmacology Branch, DTP, NCI, 2025):

Tested on: 186277-243-T-J2-PDC complex spheroids, viability
Assay: Anticancer human tumor 186277-243-T-J2-PDC patient-derived colon adenocarcinoma cell line growth inhibition [RAS]
Details: for viability, T/C: stronger effect = lower value
Excerpt: RAS pathway inhibitors in Combinations in Complex Spheroids
A high-throughput screen of multi-cell type tumor spheroids was designed to identify active combinations of RAS pathway inhibitors and targeted small molecules. Complex spheroids include a stromal component modeled by human endothelial cells (HUVEC) and fibroblasts modeled by human mesenchymal stem cells (MSCs). The concentration ranges selected for each drug and investigational agent were based upon clinically achievable concentrations if the clinical Cmax of the agent was known.
Compounds. The drugs and investigational agents: abemaciclib (NSC768073), cobimetinib (NSC768068), divarasib (GDC6063, NSC841802), docetaxel (NSC628503), GDC-1971 (RLY-1971, NSC841576), gemcitabine (NSC613327), inavolisib (NSC800729), ipatasertib (NSC767898), KB-0742 (NSC834161), MRTX-1133 (NSC836407), osimertinib (NSC779217), RMC-4630 (NSC839698), RMC-6236 (NSC851965), RMC-6291 (NSC852671), Ro-3306 (NSC812927), sapanisertib (NSC764658), SN-38 (NSC673596), staurosporine (NSC755774), SY5609 (NSC837396), and tovorafenib (DAY101, NSC766906), were obtained from the National Cancer Institute (NCI) Developmental Therapeutics Program Chemical Repository. The FDA-approved anticancer drug set is available from the NCI Developmental Therapeutics Program. […] The stock solutions were prepared in dimethyl sulfoxide (DMSO, Sigma-Aldrich, St. Louis, MO, cat. D2650) at 800-fold the tested concentration and stored at -70 degrees C prior to their use. All drugs and investigational agents were tested over a range starting from a high concentration at or near the clinical Cmax and decreasing in half-log increments. If the clinical Cmax for an agent had not been determined, the highest concentration tested was 10 microM.
Cell Culture. All cells were maintained in an incubator at 37 degrees C and 5% CO2 with 95% humidity. The PDC lines were cultured according to standard operating procedures established by the NCI PDMR. All PDCs were thawed and cultured in Matrigel-coated flasks prepared with a working solution of 1X Ham's F-12 nutrient mix, without supplementation (Invitrogen, Waltham, MA, cat. 11765054), 100 U/mL penicillin-streptomycin (Invitrogen, cat. 15140122), and 2.5% Matrigel (Corning Inc., Corning, NY, cat. 354248) for the first three passages. The 362531-283-R-J2-PDC and 782815-120-R-J1-PDC lines were cultured in 6C/Colon 1B media, which includes advanced DMEM/F-12 (Thermo Fisher Scientific, cat. 12634028), 10 mM HEPES (Thermo Fisher Scientific, cat. 15630080), 1X GlutaMAX supplement (Thermo Fisher Scientific, cat. 35050061), 0.1 mg/mL primocin (InvivoGen, San Diego, CA, cat. ant-pm-2), 10% defined fetal bovine serum, heat inactivated (HyClone Laboratories Inc., Logan, UT, cat. SH30070.03HI), 50% L-WRN conditioned media (ATCC, cat. CRL-3276), 1.25 mM N-Acetyl-L-cysteine (Sigma-Aldrich, cat. A9165), 10 mM nicotinamide (Sigma-Aldrich, cat. N0636), 1X B-27 supplement (Thermo Fisher Scientific, cat. 17504044), 1X N-2 supplement (Thermo Fisher Scientific, cat. 17502048), 50 ng/mL human EGF (Thermo Fisher Scientific, cat. PHG0311), and 10 microM Y-27632 dihydrochloride (Tocris Bioscience, cat. 1254). The K12877-001-R-J1-PDC line was cultured in 6I media, which includes all 6C/Colon 1B media plus 10 ng/mL human FGF-10 (PeproTech, cat. 100-26), 1 ng/mL human FGF-2 (PeproTech, cat. 100-18B), 1 µM prostaglandin E2 (Tocris Bioscience, cat. 2296), […] hydrocortisone (Sigma-Aldrich, cat. H4001), and […] bovine insulin (Sigma-Aldrich, cat. I6634). The K86415-001-R-J1-PDC line was cultured in 6D media, which includes all 6C/Colon 1B media components minus the L-WRN conditioned media. The 485176-168-R4-J1-PDC was cultured in PANC media, which includes all 6C/Colon 1B media plus 100 ng/mL human FGF-10 (PeproTech, cat. 100-26), 500 nM SB-431542 (Selleckchem, cat. S1067), and 10 nM gastrin (Tocris Bioscience, cat. 3006). […]
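Also: spheroids exposed to compounds for 7 days before viability read.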

In the case of `CC1(O)CCCC1n1c(=O)c(C(F)F)cc2cnc(NC3CCN(S(C)(=O)=O)CC3)nc21` (centres undefined), the viability, T/C (compound 0.0316 µM) is reported as 108% [middle of 4 runs], the viability, T/C (compound 0.1 µM) is reported as 114% [middle of 4 runs] and the viability, T/C (compound 3.16 µM) is reported as 83.6% [middle of 4 runs]. The viability, T/C (compound 10 µM) was 2.71% [middle of 4 runs] and the IC50 (curve of compound) was 4.81 µM [middle of 4 runs].

For `CCN1CCN(Cc2ccc(Nc3ncc(F)c(-c4cc(F)c5nc(C)n(C(C)C)c5c4)n3)nc2)CC1` + CCn1c(-c2cccnc2C(C)OC)c2c3cc(ccc31)N1CCOC(CC(NC(=O)C(C(C)C)N(C)C(=O)C3(F)CCN(C(=O)C#CC(C)(C)N(C)C)CC3)C(=O)N3CCCC(N3)C(=O)OCC(C)(C)C2)C1, the IC50 (curve of first compound, second compound 0.000949 µM) was > 1000 nM, the IC50 (curve of first compound, second compound 0.003 µM) was > 1000 nM and the IC50 (curve of first compound, second compound 0.00949 µM) was > 1000 nM. For the same compound, the IC50 (curve of first compound, second compound 0.03 µM) was > 1000 nM, the IC50 (curve of first compound, second compound 0.0949 µM) was > 1000 nM and the IC50 (curve of first compound, second compound 0.3 µM) was > 1000 nM. It also gave a viability, T/C (second compound 0.000949 µM, first compound 0.00316 µM) of 123%, a viability, T/C (second compound 0.000949 µM, first compound 0.01 µM) of 105% and a viability, T/C (second compound 0.000949 µM, first compound 0.0316 µM) of 135%. For the same compound, the viability, T/C (second compound 0.000949 µM, first compound 0.1 µM) was 140%, the viability, T/C (second compound 0.000949 µM, first compound 0.316 µM) was 184% and the viability, T/C (second compound 0.000949 µM, first compound 1 µM) was 126%. For the same compound, the viability, T/C (second compound 0.003 µM, first compound 0.00316 µM) was 109%, the viability, T/C (second compound 0.003 µM, first compound 0.01 µM) was 95.8% and the viability, T/C (second compound 0.003 µM, first compound 0.0316 µM) was 135%. The viability, T/C (second compound 0.003 µM, first compound 0.1 µM) was 160%, the viability, T/C (second compound 0.003 µM, first compound 0.316 µM) was 168% and the viability, T/C (second compound 0.003 µM, first compound 1 µM) was 128%. The viability, T/C (second compound 0.00949 µM, first compound 0.00316 µM) was 85.8%, the viability, T/C (second compound 0.00949 µM, first compound 0.01 µM) was 116% and the viability, T/C (second compound 0.00949 µM, first compound 0.0316 µM) was 97.7%. For the same compound, the viability, T/C (second compound 0.00949 µM, first compound 0.1 µM) was 162%, the viability, T/C (second compound 0.00949 µM, first compound 0.316 µM) was 180% and the viability, T/C (second compound 0.00949 µM, first compound 1 µM) was 132%. The viability, T/C (second compound 0.03 µM, first compound 0.00316 µM) was 102%, the viability, T/C (second compound 0.03 µM, first compound 0.01 µM) was 136% and the viability, T/C (second compound 0.03 µM, first compound 0.0316 µM) was 135%. The viability, T/C (second compound 0.03 µM, first compound 0.1 µM) was 155%, the viability, T/C (second compound 0.03 µM, first compound 0.316 µM) was 171% and the viability, T/C (second compound 0.03 µM, first compound 1 µM) was 110%. It also gave a viability, T/C (second compound 0.0949 µM, first compound 0.00316 µM) of 118%, a viability, T/C (second compound 0.0949 µM, first compound 0.01 µM) of 134% and a viability, T/C (second compound 0.0949 µM, first compound 0.0316 µM) of 122%. For the same compound, the viability, T/C (second compound 0.0949 µM, first compound 0.1 µM) was 142%, the viability, T/C (second compound 0.0949 µM, first compound 0.316 µM) was 142% and the viability, T/C (second compound 0.0949 µM, first compound 1 µM) was 90.7%. It also gave a viability, T/C (second compound 0.3 µM, first compound 0.00316 µM) of 134%, a viability, T/C (second compound 0.3 µM, first compound 0.01 µM) of 113% and a viability, T/C (second compound 0.3 µM, first compound 0.0316 µM) of 123%. The viability, T/C (second compound 0.3 µM, first compound 0.1 µM) was 116%, the viability, T/C (second compound 0.3 µM, first compound 0.316 µM) was 104% and the viability, T/C (second compound 0.3 µM, first compound 1 µM) was 58.6%.

For `CC(C)NCC(C(=O)N1CCN(c2ncnc3c2C(C)CC3O)CC1)c1ccc(Cl)cc1` (centres undefined) + C#Cc1c(F)ccc2cc(O)cc(-c3ncc4c(N5CC6CCC(C5)N6)nc(OCC56CCCN5CC(F)C6)nc4c3F)c12, the IC50 (curve of first compound, second compound 0.0316 µM) was 244 nM, the IC50 (curve of first compound, second compound 0.1 µM) was 117 nM and the IC50 (curve of first compound, second compound 0.316 µM) was < 31.6 nM. For the same compound, the IC50 (curve of first compound, second compound 1 µM) was < 31.6 nM, the IC50 (curve of first compound, second compound 3.16 µM) was < 31.6 nM and the IC50 (curve of first compound, second compound 10 µM) was < 31.6 nM. For the same compound, the viability, T/C (second compound 0.0316 µM, first compound 0.0316 µM) was 74.3%, the viability, T/C (second compound 0.0316 µM, first compound 0.1 µM) was 76.1% and the viability, T/C (second compound 0.0316 µM, first compound 0.316 µM) was 40.8%. The viability, T/C (second compound 0.0316 µM, first compound 1 µM) was 20.5%, the viability, T/C (second compound 0.0316 µM, first compound 3.16 µM) was 10.6% and the viability, T/C (second compound 0.0316 µM, first compound 10 µM) was 7.17%. The viability, T/C (second compound 0.1 µM, first compound 0.0316 µM) was 55.4%, the viability, T/C (second compound 0.1 µM, first compound 0.1 µM) was 55.4% and the viability, T/C (second compound 0.1 µM, first compound 0.316 µM) was 29.3%. It also gave a viability, T/C (second compound 0.1 µM, first compound 1 µM) of 12%, a viability, T/C (second compound 0.1 µM, first compound 3.16 µM) of 6.43% and a viability, T/C (second compound 0.1 µM, first compound 10 µM) of 4.17%. For the same compound, the viability, T/C (second compound 0.316 µM, first compound 0.0316 µM) was 28.8%, the viability, T/C (second compound 0.316 µM, first compound 0.1 µM) was 26.3% and the viability, T/C (second compound 0.316 µM, first compound 0.316 µM) was 13.1%. The viability, T/C (second compound 0.316 µM, first compound 1 µM) was 5.77%, the viability, T/C (second compound 0.316 µM, first compound 3.16 µM) was 3.93% and the viability, T/C (second compound 0.316 µM, first compound 10 µM) was 2.95%. It also gave a viability, T/C (second compound 1 µM, first compound 0.0316 µM) of 17.7%, a viability, T/C (second compound 1 µM, first compound 0.1 µM) of 14.4% and a viability, T/C (second compound 1 µM, first compound 0.316 µM) of 10.1%. For the same compound, the viability, T/C (second compound 1 µM, first compound 1 µM) was 5.25%, the viability, T/C (second compound 1 µM, first compound 3.16 µM) was 4.08% and the viability, T/C (second compound 1 µM, first compound 10 µM) was 2.03%. For the same compound, the viability, T/C (second compound 3.16 µM, first compound 0.0316 µM) was 12.4%, the viability, T/C (second compound 3.16 µM, first compound 0.1 µM) was 11.2% and the viability, T/C (second compound 3.16 µM, first compound 0.316 µM) was 9.1%. For the same compound, the viability, T/C (second compound 3.16 µM, first compound 1 µM) was 3.67%, the viability, T/C (second compound 3.16 µM, first compound 3.16 µM) was 2.83% and the viability, T/C (second compound 3.16 µM, first compound 10 µM) was 2.07%. The viability, T/C (second compound 10 µM, first compound 0.0316 µM) was 8.59%, the viability, T/C (second compound 10 µM, first compound 0.1 µM) was 9.81% and the viability, T/C (second compound 10 µM, first compound 0.316 µM) was 5.65%. It also gave a viability, T/C (second compound 10 µM, first compound 1 µM) of 3.64%, a viability, T/C (second compound 10 µM, first compound 3.16 µM) of 2.9% and a viability, T/C (second compound 10 µM, first compound 10 µM) of 0.94%.
